Results: article PMC7756341, “Liposomal FRET Assay Identifies Potent Drug‐Like Inhibitors of the Ceramide Transport Protein (CERT)” (Chemistry (Weinheim an Der Bergstrasse, Germany), 2020)

Target: T1, CERT (Homo sapiens, UniProt Q9Y5P4)
T1 construct: made in house; host or cells: E. coli BL21 (DE3), pET-28a(+)
T1 sequence (Q9Y5P4 1-598 isoform Q9Y5P4-2): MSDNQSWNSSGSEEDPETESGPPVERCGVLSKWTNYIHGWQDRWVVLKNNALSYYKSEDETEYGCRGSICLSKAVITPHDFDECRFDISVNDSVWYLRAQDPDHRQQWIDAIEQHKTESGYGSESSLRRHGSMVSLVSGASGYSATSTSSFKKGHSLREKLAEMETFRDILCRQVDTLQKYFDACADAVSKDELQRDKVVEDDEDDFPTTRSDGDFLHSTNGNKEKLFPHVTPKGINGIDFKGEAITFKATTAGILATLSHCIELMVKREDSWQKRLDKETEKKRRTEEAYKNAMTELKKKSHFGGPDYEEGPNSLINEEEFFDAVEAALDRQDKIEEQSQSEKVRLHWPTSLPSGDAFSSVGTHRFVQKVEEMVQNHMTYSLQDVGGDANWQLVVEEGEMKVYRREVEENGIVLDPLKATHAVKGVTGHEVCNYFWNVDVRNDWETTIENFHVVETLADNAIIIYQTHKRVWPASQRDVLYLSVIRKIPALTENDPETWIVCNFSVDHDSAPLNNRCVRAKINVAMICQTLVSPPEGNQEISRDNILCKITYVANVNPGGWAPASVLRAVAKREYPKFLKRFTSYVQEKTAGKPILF
Assay: NR-ceramide fluorescence competition assay
Assay type: binding
Conditions: 1 μM Nile red ceramide
Text: Having the identified hits from CERT-transfer assay, we were interested in further understanding the relationship between the CERT-transfer inhibitory activity and CERT-binding affinity. With this goal in mind, we have developed a homogenous competitive assay based on the binding of fluorescently-labeled ceramide to CERT-protein (Fig S6). It’s well known that Nile Red is […]
than in hydrophilic one. Based on this knowledge, we have designed a fluorescently-labeled probe in which the Nile Red-tag was incorporated into the ceramide fatty acid moiety. The NR-ceramide […]
excellent signal-to-noise ratio (28-fold, Fig S7.A). Equilibration takes ~1h of incubation at 30°C.
Furthermore, this assay is a simple mix-and read format and uses only low amounts of fluorophore (1µM) and CERT-protein (12.5µg/assay).
The assay was performed in non-binding black-bottom 96-well microplate (Greiner Bio-One). To each well was added 1µL HPA12 (final concentration 2.5µM) or DMSO, followed by 98 µL of the CERT aliquot (12.5µg/well). After the mixture was incubated for 40 min at 30°C, 1µL NR-ceramide (final concentration 1µM) was added. Controls were triplicates of 10mM Tris.HCl buffer (pH 7.4, 250 mM sucrose) with 2µL DMSO, CERT aliquot (12.5µg/well) with 2µL DMSO, and 1µL NR-ceramide (final concentration 1µM) in 10mM Tris.HCl buffer (pH 7.4, 250 mM sucrose) with 1µL DMSO. The plate was then sealed with transparent Thermowell seal tape and placed in the microplate reader (LABTECH) at 30°C with shaking. The fluorescence was measured from the top over 80min (number of cycles 35, delay 70 sec) with excitation filter 540 nm and emission filter 640 nm. The competitive CERT-binding activity was calculated using the formula: Ix = I(À2-Y)/I0(À1-X), where À1 is the average of the florescence of the control of NR-ceramide in Tris.HCl buffer, X is the average of the fluorescence of the buffer alone, À2 is the fluorescence average of the assay mixture, Y is the fluorescence average of the CERT aliquot with inhibitor/DMSO (Fig […]
It is however lower than the differentiation in the transfer assay (Fig S8B).
3.2 High throughput screening for CERT-activity and Data analysis
In order to validate the performance of developed assay in high-throughput screening format, the hits from ‘confirmed-hit group’ (45 hits) were screened for their competitive CERT-binding activity. The assay was performed as mentioned in the previous sub-section 3.1. Briefly, 1µL tested compound (final concentration 1µM, 2.5µM, 5µM, 10µM) or DMSO for control, and 98 µL CERT stock solution were sequentially added into a non-binding 96-well microplate. The plate was sealed and incubated at 30°C for 40 min, before 1µL NR-ceramide (final concentration 1µM) was added.
Controls per plate were triplicates of 10mM Tris.HCl buffer (pH 7.4, 250 mM sucrose) with 2µL DMSO, CERT aliquot (12.5µg/well) with 2µL DMSO, 1µL NR-ceramide (final concentration 1µM) in 10mM Tris.HCl buffer (pH 7.4, 250 mM sucrose), and HPA12 as a reference inhibitor (final concentration of 1µM, and 2.5µM, 5µM). The plate was sealed with transparent Thermowell seal tape and the assay was allowed to proceed as described above using excitation filter 540 nm and emission filter 640 nm. The competitive CERT-binding activity was calculated using the formula: Ix = I(À2-Y)/I0(À1-X), where À1 is the average of the florescence of the control 1µL NR-ceramide in Tris.HCl buffer, X is the average of the fluorescence of the buffer alone, À2 is the average of the fluorescence of assay mixture treated with tested compound or DMSO, Y is the average of the fluorescence of CERT aliquot with inhibitor/DMSO.

CCCCCCCCCCCC(=O)NC(CO)CC(O)c1ccccc1 (single isomer, unassigned) [R,R diastereomer of HPA‐12, N-(3Hydroxy-1-hydroxymethyl-3-phenylpropyl)-dodecamide]
activity in the NR ceramide competition assay: much less pronounced
